Data taken from patent US10364256B2 (GlaxoSmithKline Intellectual Property Development Limited, priority 2015, dated 2019).
Where two headings read alike, the source gives them in different places.

Tests used:
[1] = molecular target: T1, Keap1 Kelch domain (321-609) / TAMRA-labeled 16mer NRF2 peptide (ETGE motif) (Homo sapiens, UniProt Q14145); experiment: NRF2-Keap1 FP Assay (Keap1 Kelch fluorescence polarization); assay type: binding; details: 20 nM Keap1 (321-609), 8 nM Tamra labeled peptide
T1 construct: the Kelch domain (321-609) of Keap1 is used
T1 sequence (Q14145 321-609): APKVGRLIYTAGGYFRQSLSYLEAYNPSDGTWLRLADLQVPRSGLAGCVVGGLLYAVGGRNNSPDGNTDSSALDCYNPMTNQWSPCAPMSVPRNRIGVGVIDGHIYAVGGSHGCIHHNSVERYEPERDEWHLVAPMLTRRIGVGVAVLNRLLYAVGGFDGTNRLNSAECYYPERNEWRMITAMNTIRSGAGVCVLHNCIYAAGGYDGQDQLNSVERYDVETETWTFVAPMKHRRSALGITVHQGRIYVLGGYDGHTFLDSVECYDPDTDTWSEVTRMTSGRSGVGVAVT
Procedure, shortened: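 Compound dilutions (3-fold) were incubated 1 hr at room temperature with 20 nM Keap1 Kelch (321-609) and 8 nM TAMRA-labeled ETGE 16mer peptide. Buffer was 50 mM Tris pH 8.0, 100 mM NaCl, 5 mM MgCl2, 1 mM DTT, 2 mM CHAPS, 0.005% BSA. Fluorescence polarization (mP) was normalized to controls and fitted with a four-parameter equation to give pIC50.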

[2] = test system: NQO1 specific enzyme activity in BEAS-2B cells (marker for NRF2 activation); experiment: BEAS-2B NQO1 MTT Assay; assay type: cell-based; details: Homo sapiens, compound incubated 48 hours, read-out: EC50 (NQO1 specific enzyme activity induction)
Procedure, shortened: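 BEAS-2B cells treated with compound for 48 h at 37 °C, then lysed; NQO1 activity in lysates measured kinetically by MTT reduction at A570 over 30 min. pEC50 from 3-parameter fit of ΔOD/min versus log concentration; lysate also taken for Cell Titer Glo.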

[3] = molecular target: T2, full length Keap1 protein / full length NRF2 protein (Homo sapiens, UniProt Q14145); experiment: NRF2-Keap1 TR-FRET Assay; assay type: binding; details: 25 nM Keap1-FlagHis and 50 nM biotin-NRF2 added
T2 construct: full length NRF2 protein and full length Keap1 protein (Keap1 exists a dimer) are used; His
T2 sequence (Q14145 whole entry): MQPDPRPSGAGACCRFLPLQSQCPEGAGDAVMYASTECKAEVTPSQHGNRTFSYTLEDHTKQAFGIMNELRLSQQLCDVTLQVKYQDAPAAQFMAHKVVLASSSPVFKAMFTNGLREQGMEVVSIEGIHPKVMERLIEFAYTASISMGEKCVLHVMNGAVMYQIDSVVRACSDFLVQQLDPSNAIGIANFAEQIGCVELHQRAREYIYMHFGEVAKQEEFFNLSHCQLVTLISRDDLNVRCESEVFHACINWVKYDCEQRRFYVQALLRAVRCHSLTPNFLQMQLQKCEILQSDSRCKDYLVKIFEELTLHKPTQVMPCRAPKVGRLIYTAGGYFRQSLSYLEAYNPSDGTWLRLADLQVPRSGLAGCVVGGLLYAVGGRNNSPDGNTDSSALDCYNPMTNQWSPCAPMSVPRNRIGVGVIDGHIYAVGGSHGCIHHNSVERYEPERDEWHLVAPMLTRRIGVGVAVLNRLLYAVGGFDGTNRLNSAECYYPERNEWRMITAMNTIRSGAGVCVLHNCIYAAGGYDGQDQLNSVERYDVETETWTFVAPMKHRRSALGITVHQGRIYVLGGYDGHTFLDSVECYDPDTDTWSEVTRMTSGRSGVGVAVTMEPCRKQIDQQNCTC
Procedure, shortened: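 Full-length Keap1-FlagHis preincubated with compound 2.25 h at 37 °C, then biotin-NRF2 added for 1.25 h at 4 °C, in Tris pH 8.0 with MgCl2, NaCl, BSA, DTT, CHAPS. TR-FRET 665/615 nm ratio normalised to with- and without-protein 1% DMSO controls; pIC50 from four-parameter fit.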

Row | IC50 [1] [µM] | IC50 [3] [µM] | SMILES | EC50 ([2]; BEAS-2B, 48 h) [µM] | EC50 [2] [µM]
1 | 0.01 to 0.1 | 0.1 to 1 | CCCC1CCCCN1C(=O)c1cccc(-c2cccc(-n3ncc(C(=O)O)c3CCc3cn(C)nn3)c2)c1F (stereo not drawn) [Example 56, 1-(2′-Fluoro-3′-(2-propylpiperidine-1-carbonyl)-[1,1′-biphenyl]-3-yl)-5-(2-(1-methyl-1H-1,2,3-triazol-4-yl)ethyl)-1H-pyrazole-4-carboxylic Acid] |  | 1 to 10
2 | 1 to 10 | 10 to 100 | CC(Oc1cccc(-c2cccc(-n3ncc(C(=O)O)c3C3CC3)c2)c1)C1CCCCC1 (stereo not drawn) [Example 60, 1-(3′-(1-Cyclohexylethoxy)-[1,1′-biphenyl]-3-yl)-5-cyclopropyl-1H-pyrazole-4-carboxylic Acid] |  | 1 to 10
3 | 1 to 10 | > 100 | CC(C)Oc1cccc(-c2cccc(-n3ncc(C(=O)O)c3C(F)(F)F)n2)c1 [Example 66, 1-(6-(3-Isopropoxyphenyl)pyridin-2-yl)-5-(trifluoromethyl)-1H-pyrazole-4-carboxylic Acid] |  | 1 to 10
4 | 0.01 to 0.1 | 0.01 to 0.1 | CCC[C@@H]1CCCCN1C(=O)c1cccc(-c2cccc(-n3ncc(C(=O)O)c3C3CC3c3cnoc3C)c2)c1 (stereo partly drawn) [Example 159, 5-(2-(5-Methylisoxazol-4-yl)cyclopropyl)-1-(3′-((R)-2-propylpiperidine-1-carbonyl)-[1,1′-biphenyl]-3-yl)-1H-pyrazole-4-carboxylic Acid] | 0.1 to 1 | 
5 | 0.1 to 1 | 0.1 to 1 | Cn1cc(C2CC2c2c(C(=O)O)cnn2-c2cccc(-c3cccc(OCC4CCCOC4)c3)c2)nn1 (stereo not drawn) [Example 169, 5-(2-(1-Methyl-1H-1,2,3-triazol-4-yl)cyclopropyl)-1-(3′-((tetrahydro-2H-pyran-3-yl)methoxy)-[1,1′-biphenyl]-3-yl)-1H-pyrazole-4-carboxylic acid] |  | 1 to 10
6 | 0.01 to 0.1 | 0.1 to 1 | Cn1cc(C2CC2c2c(C(=O)O)cnn2-c2cccc(-c3cccc(OCC4CCOCC4)c3)c2)nn1 (stereo not drawn) [Example 174, 5-(2-(1-Methyl-1H-1,2,3-triazol-4-yl)cyclopropyl)-1-(3′-((tetrahydro-2H-pyran-4-yl)methoxy)-[1,1′-biphenyl]-3-yl)-1H-pyrazole-4-carboxylic acid] |  | 1 to 10
7 | 0.1 to 1 | 1 to 10 | CC(C)Oc1cccc(-c2cccc(-n3ncc(C(=O)O)c3C3CC3c3cn(C)nn3)c2)c1F (stereo not drawn) [Example 181, 1-(2′-Fluoro-3′-isopropoxy-[1,1′-biphenyl]-3-yl)-5-(2-(1-methyl-1H-1,2,3-triazol-4-yl)cyclopropyl)-1H-pyrazole-4-carboxylic acid] |  | 1 to 10
8 | > 10 | 10 to 100 | Cn1cc(C2CC2c2c(C(=O)O)cnn2-c2cc(C#N)cc(-c3cccc(OCC4CCCCC4)c3)c2)nn1 (stereo not drawn) [Example 189, 1-(5-cyano-3′-(cyclohexylmethoxy)-[1,1′-biphenyl]-3-yl)-5-(2-(1-methyl-1H-1,2,3-triazol-4-yl)cyclopropyl)-1H-pyrazole-4-carboxylic acid] |  | 1 to 10
9 | 1 to 10 | 10 to 100 | Cn1cnc(C2CC2c2c(C(=O)O)cnn2-c2cccc(-c3cccc(OCC4CCCCC4)c3)c2)c1 (stereo not drawn) [Example 190, 1-(3′-(cyclohexylmethoxy)-[1,1′-biphenyl]-3-yl)-5-(2-(1-methyl-1H-imidazol-4-yl)cyclopropyl)-1H-pyrazole-4-carboxylic acid] |  | 1 to 10
10 | 1 to 10 | 1 to 10 | CCC[C@@H]1CCCCN1C(=O)c1cccc(-c2cccc(-n3nc(C)c(C(=O)O)c3C3CC3)c2)c1 [Example 203, (R)-5-Cyclopropyl-3-methyl-1-(3′-(2-propylpiperidine-1-carbonyl)-[1,1′-biphenyl]-3-yl)-1H-pyrazole-4-carboxylic acid] |  | 1 to 10

Further lines, the compound ahead of its results:

Row | SMILES | IC50 [1] [µM] | IC50 [3] [µM] | EC50 ([2]; BEAS-2B, 48 h) [µM] | EC50 [2] [µM]
11 | CCCC1CCCCN1C(=O)c1cccc(-c2cccc(-n3ncc(C(=O)O)c3C3CC3c3cccnc3)c2)c1 (stereo not drawn) [Example 52, 1-{3-[3-(2-propylpiperidine-1-carbonyl)phenyl]phenyl}-5-[2-(pyridin-3-yl)cyclopropyl]-1H-pyrazole-4-carboxylic Acid] | 0.1 to 1 | 1 to 10 | 1 to 10 | 
12 | CCC[C@@H]1CCCCN1C(=O)c1cccc(-c2cccc(-n3ncc(C(=O)O)c3CCc3cn(C)nn3)c2)c1 [Example 58, (R)-5-(2-(1-Methyl-1H-1,2,3-triazol-4-yl)ethyl)-1-(3′-(2-propylpiperidine-1-carbonyl)-[1,1′-biphenyl]-3-yl)-1H-pyrazole-4-carboxylic Acid] | 0.01 to 0.1 | 0.1 to 1 | 1 to 10 | 
13 | Cn1cc(CCc2c(C(=O)O)cnn2-c2cccc(-c3cccc(OCC4CCCCC4)c3)c2)nn1 [Example 151, 1-(3-(Cyclohexylmethoxy)-[1,1′-biphenyl]-3-yl)-5-(2-(1-methyl-1H-1,2,3-triazol-4-yl)ethyl)-1H-pyrazole-4-carboxylic acid] | 1 to 10 | 10 to 100 |  | 1 to 10
14 | Cn1cc(CCCCOc2cccc(-c3cccc(-n4ncc(C(=O)O)c4C4CC4)c3)c2)nn1 [Example 153, 5-Cyclopropyl-1-(3′-(4-(1-methyl-1H-1,2,3-triazol-4-yl)butoxy)-[1,1′-biphenyl]-3-yl)-1H-pyrazole-4-carboxylic Acid] | 1 to 10 | 10 to 100 |  | 1 to 10
15 | CCn1cc(C2CC2c2c(C(=O)O)cnn2-c2cccc(-c3cccc(C(=O)N(C)C)c3)c2)nn1 (stereo not drawn) [Example 158, 1-(3′-(dimethylcarbamoyl)-[1,1′-biphenyl]-3-yl)-5-(2-(1-ethyl-1H-1,2,3-triazol-4-yl)cyclopropyl)-1H-pyrazole-4-carboxylic Acid] | 0.1 to 1 | 1 to 10 |  | 1 to 10
16 | Cn1cc(C2CC2c2c(C(=O)O)cnn2-c2cccc(-c3cccc(OC(C)(C)C)c3)c2)nn1 (stereo not drawn) [Example 166, 1-(3′-(tert-Butoxy)-[1,1′-biphenyl]-3-yl)-5-(2-(1-methyl-1H-1,2,3-triazol-4-yl)cyclopropyl)-1H-pyrazole-4-carboxylic acid] | 0.01 to 0.1 | 0.1 to 1 |  | 0.1 to 1
17 | COCCC(COc1cccc(-c2cccc(-n3ncc(C(=O)O)c3C3CC3c3cn(C)nn3)c2)c1)C1CCCCC1 (stereo not drawn) [Example 168, 1-(3′-(2-Cyclohexyl-4-methoxybutoxy)-[1,1′-biphenyl]-3-yl)-5-(2-(1-methyl-1H-1,2,3-triazol-4-yl)cyclopropyl)-1H-pyrazole-4-carboxylic acid] | 0.01 to 0.1 | 0.1 to 1 |  | 0.01 to 0.1
18 | CCCC(COc1cccc(-c2cccc(-n3ncc(C(=O)O)c3C3CC3c3cn(C)nn3)c2)c1)C1CCCCC1 (stereo not drawn) [Example 172, 1-(3′-((2-Cyclohexylpentyl)oxy)-[1,1′-biphenyl]-3-yl)-5-(2-(1-methyl-1H-1,2,3-triazol-4-yl)cyclopropyl)-1H-pyrazole-4-carboxylic acid] | 0.1 to 1 | 1 to 10 |  | 0.1 to 1
19 | CC(COc1cccc(-c2cccc(-n3ncc(C(=O)O)c3C3CC3c3cn(C)nn3)c2)c1)C1CCCCC1 (stereo not drawn) [Example 173, 1-(3′-(2-Cyclohexylpropoxy)-[1,1′-biphenyl]-3-yl)-5-(2-(1-methyl-1H-1,2,3-triazol-4-yl)cyclopropyl)-1H-pyrazole-4-carboxylic acid] | 0.01 to 0.1 | 0.1 to 1 |  | 0.01 to 0.1
20 | Cn1cc(C2CC2c2c(C(=O)O)cnn2-c2cccc(-c3cccc(OCC4CCCCO4)c3)c2)nn1 (stereo not drawn) [Example 175, 5-(2-(1-Methyl-1H-1,2,3-triazol-4-yl)cyclopropyl)-1-(3′-((tetrahydro-2H-pyran-2-yl)methoxy)-[1,1′-biphenyl]-3-yl)-1H-pyrazole-4-carboxylic acid] | 0.01 to 0.1 | 0.1 to 1 |  | 1 to 10
21 | CCOC(c1cccc(-c2cccc(-n3ncc(C(=O)O)c3C3CC3c3cn(C)nn3)c2)c1)C(C)C (stereo not drawn) [Example 182, 1-(3′-(1-Ethoxy-2-methylpropyl)-[1,1′-biphenyl]-3-yl)-5-(2-(1-methyl-1H-1,2,3-triazol-4-yl)cyclopropyl)-1H-pyrazole-4-carboxylic acid] | 0.01 to 0.1 | 0.1 to 1 |  | 0.1 to 1
22 | COC(c1cccc(-c2cccc(-n3ncc(C(=O)O)c3C3CC3c3cn(C)nn3)c2)c1)C(C)C (stereo not drawn) [Example 184, 1-(3′-(1-Methoxy-2-methylpropyl)-[1,1′-biphenyl]-3-yl)-5-(2-(1-methyl-1H-1,2,3-triazol-4-yl)cyclopropyl)-1H-pyrazole-4-carboxylic acid] | 0.01 to 0.1 | 0.1 to 1 |  | 0.1 to 1
23 | CCC[C@@H]1CCCCN1C(=O)c1cc(F)cc(-c2cccc(-n3ncc(C(=O)O)c3C3CC3c3cn(C)nn3)c2)c1 (stereo partly drawn) [Example 198, 1-(3′-Fluoro-5′-((R)-2-propylpiperidine-1-carbonyl)-[1,1′-biphenyl]-3-yl)-5-(2-(1-methyl-1H-1,2,3-triazol-4-yl)cyclopropyl)-1H-pyrazole-4-carboxylic acid] | 0.01 to 0.1 | 0.01 to 0.1 | 0.1 to 1 | 
